Measurements reported in paper PMC8838898, “Identification of Novel Cannabinoid CB2 Receptor Agonists from Botanical Compounds and Preliminary Evaluation of Their Anti-Osteoporotic Effects” (Molecules, 2022).
Like-named read-outs stand apart in the source and are kept apart here.

Columns and labels:
[1] = system: osteoblasts derived from mBMSC; assay: ALP activity of osteoblasts derived from BMSCs; type: cell-based, rat; settings: 1 μM, seven days
Experimental: (§1) BMSCs were isolated from the femur of 1-day-old Wistar rats and cultured in a dish containing α-MEM supplemented with 10% FBS, 100 U·mL^−1 penicillin, […] streptomycin, and 1% L-Glutaminea in a humidified atmosphere of 5% CO2 for 24 h. The medium was changed every three days. The subculture cells (passage 2–4) were used for subsequent experiments. BMSCs were identified in terms of the morphological character and properties of differentiation into osteoblasts. This experiment was approved by the Bioethics Committee of Zhejiang University of Traditional Chinese Medicine.
(§2) The BMSCs cells were inoculated in a 96-well plate at a density of 1 × 10^4 cells per well and cultured at 37 °C for 24 h. […] The optical density (OD) value was determined at 450 nm. The BMSCs cells were treated as described above and cultured for seven days to measure the ALP activity according to the kit instructions or cultured for five days to stain ALP in the osteoblasts according to the following procedures. Briefly, cells were washed with pre-cooled PBS twice and stained with the alkaline phosphatase staining solution for 30 min at 37 °C. After discarding the dye solution, cells were rinsed with distilled water three times and observed and photographed under a light microscope.

CB2R [2] = biological target: T1, CB2R (Homo sapiens, UniProt P34972); assay: double luciferase reporter screening system in HEK293-CB2 cells; type: cell-based
T1 construct: expressed in transfected cells; host or cells: HEK293 cells stably transfected with pIRES2-EGFP-CB2, pGL4.29 [luc2P/CRE/Hygro] and pRL-TK
Experimental: To generate the HEK293-CB2 cells, 5 × 10^5 HEK293 cells were cultured in a 60 mm culture dish for 12 h, washed with PBS, and then transfected with Lipofectamine 3000 reagent containing a test reporter plasmid, control reporter plasmid encoding Renilla luciferase, and effector plasmid. The ratio of the transfection plasmid pIRES2-EGFP-CB2, pGL4.29 [luc2P/CRE/Hygro], and pRL-TK was 2 μg, 10 μg, and 1μg, respectively. After a 24-htransfection, cells were selected and cultured in the medium containing G418 (800 μg·mL^−1) and hygromycin (400 μg·mL^−1) for two weeks. The surviving cells were picked and expanded as HEK293-CB2R cells.
Several aspects of the high-throughput screening system were optimized to ensure efficient and accurate application of the system for high-throughput data collection. To conduct high-throughput assays in 96-well plates, the number of cells seeded per well, incubation time, drug and AM630 concentrations, and the DMSO content were optimized. The dual luciferase assay was performed as described previously. […] Subsequently, the quantitative evaluation indexes of the high-throughput screening system, including the signal-to-background ratio, S/B = Msignal/Mbackground; signal window, SW = Msignal − Mbackground; signal-to-noise ratio, S/N = (Msignal − Mbackground)/SDbackground; signal background coefficient of variation, CV(%) = 100 × SDsignal/Msignal; and Z’ factor were determined to ensure its efficient and accurate application of the system in high-throughput data collection. Here, Z′ = 1 − 3(SDsignal + SDbackground)/|Msignal − Mbackground| [25], where M represents an average of the relative luminescence value and SD is the standard deviation of M.
The HEK293-CB2 cells from 10–40 passages were separately inoculated into 96-well plates at 5 × 10^3 cells per well. […] The results were expressed as relative luminescence values.
The HEK293-CB2 cells were inoculated on a 96-well culture plate with a density of 5 × 10^3 cells per well. […] The relative luminescence value was used to express the expression of CB2R.
Furthermore, the activation of the compounds on CB2R was also verified by using the CB2R inverse agonist AM630. The HEK293-CB2 cells were inoculated on a 6-well culture plate at a density of 5 × 10^4 cells per well. […] The expression of the CB2R gene is expressed by the relative luminescence value.

[3] = system: osteoblasts derived from mBMSC; assay: bone mineralization nodules of osteoblasts (alizarin red staining); type: cell-based, rat; settings: 1 μM, 14 days
Experimental: as §1
Cells were treated as described above for 14 days to observe the bone mineralized nodule formation using alizarin red staining solution. Briefly, the cells were washed with pre-cooled PBS twice, fixed with 3.7% formaldehyde for 10 min, and stained with ARS dye (pH = 4.2) containing 40 mM alizarin redstain for 10 min. The morphology and number of bone mineralized nodules of osteoblasts were observed under a light microscope.

CB2R [4] = biological target: T1, CB2R; assay: forskolin-stimulated cAMP accumulation assay in HEK293-CB2 cells; type: cell-based; settings: forskolin 30 min, then compound 6 h, read-out: IC50 of inhibition of forskolin-stimulated cAMP
Experimental: After treatment, the cell supernatant was diluted with PBS (pH 7.2–7.4). The cells were lysed by repeated freeze–thaw cycles and being centrifuged for 20 min at 2000–3000 r.p.m. The concentration of cAMP in the cell lysate was determined according to the instructions of the cAMP kit.

mBMSCs cells = assay: proliferation of BMSCs (CCK8); type: cell-based, rat; settings: 1 μM, 48 h
Experimental: as §1, §2

[5] = system: osteoclasts derived from RAW264.7 cells; assay: TRAP activity of osteoclasts derived from RAW264.7 cells induced with RANKL; type: cell-based, murine; settings: 1 μM, three-day treatment; enzyme activity and cell staining
Experimental: The murine macrophage RAW264.7 cell line, which has the potential to differentiate into osteoclasts under the induction of RANKL, was obtained from the Cell Bank of the Chinese Academy of Sciences (Shanghai, China). The cells were cultured in DMEM containing 10% (v/v), 1% (v/v) penicillin, and streptomycin (Beyotime, Shanghai, China) at 37 °C in humidified air with 5% CO2, and then subcultured every two days. For induction of the osteoclasts, RAW264.7 cells were incubated with 25 ng·mL^−1 RANKL for 72 h. Osteoclasts were identified by TRAP staining.
RAW264.7 cells were inoculated in a 96-well plate at a density of 1 × 10^4 cells per well. After a 24-h culture at 37 °C, cells were treated with the test compounds for 48 h and cell viability was determined with the CCK-8 kit according to the instructions. RAW264.7 cells were inoculated on a 96-well culture plate at a density of 1 × 10^4 cells per well, induced with […] of nuclear factor-κB receptor activator ligand (RANKL) to differentiate into osteoclasts for 72 h. […] Briefly, the cells were washed with sodium thiobarbital twice, lysed with 0.1% Triton X-100 (10 μL per well) for 10 min, and then incubated with 100 μL of TRAP reaction solution (0.02 g disodium nitrophenyl phosphate and 0.1 g potassium sodium tartrate dissolved in 10 mL deionized water with pH adjusted to 3.5 by addition of 1 mol·L^−1 HCl) for 30 min at 37 °C. The reaction was terminated with 1 mol·L^−1 of NaOH solution (100 μL per well) and the absorbance was determined at a wavelength of 405 nm. The TRAP activity was expressed by the amount (mole) of p-nitrophenol produced by 100 osteoclasts. For staining, the osteoclasts were treated as described above, stained according to the instruction of the TRAP staining kit, and observed and photographed under a light microscope.

[6] = HEK293-CB2 cells, pretreated with 1 μM AM630 for 30 min, then 1 μM compound 6 h

T1 sequence (P34972 whole entry): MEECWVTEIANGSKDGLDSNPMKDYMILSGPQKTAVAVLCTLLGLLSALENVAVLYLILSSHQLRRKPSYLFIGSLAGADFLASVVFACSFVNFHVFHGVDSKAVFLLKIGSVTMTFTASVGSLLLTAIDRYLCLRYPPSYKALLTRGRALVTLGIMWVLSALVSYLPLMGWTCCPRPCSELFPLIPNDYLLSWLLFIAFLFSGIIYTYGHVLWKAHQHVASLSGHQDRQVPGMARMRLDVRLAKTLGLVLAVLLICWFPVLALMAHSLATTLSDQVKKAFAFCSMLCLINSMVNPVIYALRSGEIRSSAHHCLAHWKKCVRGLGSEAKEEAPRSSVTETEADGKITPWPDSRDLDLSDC

## COc1ccc(/C=C/C(=O)c2c(O)cc(OC)cc2OC)cc1 [Flavokawain A]
[1]
  ALP activity of osteoblasts derived from mBMSC: increased
CB2R [2]; 1 μM, 6 h, HEK293-CB2 cells
  agonistic effect on CB2R (relative luminescence / fluorescence expression in HEK293-CB2): could increase the fluorescence expression
CB2R [2]; [6]
  reversal of the agonistic effect on CB2R by AM630: could be abated by AM630
[3]
  matrix mineralization of osteoblasts derived from mBMSC: increased
CB2R [4]
  IC50: 0.902 µM
mBMSCs cells
  proliferation of mBMSCs cells: increased
[5]
  TRAP activity of osteoclasts derived from RAW264.7 cells induced with RANKL: inhibited TRAP activity

## COc1cc(O)c(C(=O)/C=C/c2ccc(O)cc2)c(OC)c1 [Flavokawain C]
CB2R [2]; 1 μM, 6 h, HEK293-CB2 cells
  agonistic effect on CB2R (relative luminescence / fluorescence expression in HEK293-CB2): could increase the fluorescence expression
CB2R [2]; [6]
  reversal of the agonistic effect on CB2R by AM630: could be abated by AM630
CB2R [4]
  IC50: 5.17 µM
mBMSCs cells
  proliferation of mBMSCs cells: had no effect on the proliferation

## COC1=CC(=O)O[C@@H](CCc2ccc3c(c2)OCO3)C1 [Dihydromethysticin]
[1]
  ALP activity of osteoblasts derived from mBMSC: increased
CB2R [2]; 1 μM, 6 h, HEK293-CB2 cells
  agonistic effect on CB2R (relative luminescence / fluorescence expression in HEK293-CB2): could increase the fluorescence expression
CB2R [2]; [6]
  reversal of the agonistic effect on CB2R by AM630: could be abated by AM630
[3]
  matrix mineralization of osteoblasts derived from mBMSC: increased
CB2R [4]
  IC50: 0.0357 µM
mBMSCs cells
  proliferation of mBMSCs cells: increased

## O=c1cc(-c2ccc(O)c(O)c2)oc2c([C@@H]3O[C@H](CO)[C@@H](O)[C@H](O)[C@H]3O)c(O)cc(O)c12 [Orientin]
CB2R [2]; 1 μM, 6 h, HEK293-CB2 cells
  agonistic effect on CB2R (relative luminescence / fluorescence expression in HEK293-CB2): could increase the fluorescence expression
CB2R [2]; [6]
  reversal of the agonistic effect on CB2R by AM630: could be abated by AM630
CB2R [4]
  IC50: 0.111 µM
mBMSCs cells
  proliferation of mBMSCs cells: had no effect on the proliferation

## O=c1c2cc(O)c(O)cc2oc2cc(O)c([C@@H]3O[C@H](CO)[C@@H](O)[C@H](O)[C@H]3O)c(O)c12 [Mangiferin]
[1]
  ALP activity of osteoblasts derived from mBMSC: increased
CB2R [2]
  agonistic effect on CB2R (relative luminescence / fluorescence expression in HEK293-CB2): could increase the fluorescence expression
  reversal of the agonistic effect on CB2R by AM630: could be abated by AM630
[3]
  matrix mineralization of osteoblasts derived from mBMSC: increased
CB2R [4]
  IC50: 1.17 µM
mBMSCs cells
  proliferation of mBMSCs cells: increased
[5]
  TRAP activity of osteoclasts derived from RAW264.7 cells induced with RANKL: inhibited TRAP activity

## COc1cc(O)ccc1/C=C/C(=O)c1ccc(O)cc1 [Echinatin]
[1]
  ALP activity of osteoblasts derived from mBMSC: increased
CB2R [2]; 1 μM, 6 h, HEK293-CB2 cells
  agonistic effect on CB2R (relative luminescence / fluorescence expression in HEK293-CB2): could increase the fluorescence expression
CB2R [2]; [6]
  reversal of the agonistic effect on CB2R by AM630: could be abated by AM630
[3]
  matrix mineralization of osteoblasts derived from mBMSC: increased
CB2R [4]
  IC50: 0.0905 µM
mBMSCs cells
  proliferation of mBMSCs cells: increased
[5]
  TRAP activity of osteoclasts derived from RAW264.7 cells induced with RANKL: inhibited TRAP activity

## COc1ccc(C(=O)c2c(C)n(CCN3CCOCC3)c3cc(I)ccc23)cc1 [AM630, reference compound]
CB2R [2]
  reversal effect on the agonistic effect of HU308 on CB2R: mitigated

## C=C[C@@]1(C)CC(=O)[C@]2(O)[C@@]3(C)[C@@H](O)CCC(C)(C)[C@@H]3[C@H](O)[C@H](OC(C)=O)[C@@]2(C)O1 [forskolin, reference compound]
CB2R [2]; screening system validation, forskolin 1 μM
  signal average and standard deviation (positive control group): 63.3 ± 4.4%

## C[C@H]1[C@H](C)CC[C@]2(C)CC[C@]3(C)C(=CC(=O)[C@@H]4[C@@]5(C)CC[C@@H](O)[C@](C)(C(=O)O)[C@@H]5CC[C@]43C)[C@H]12 [11-Keto-beta-boswellic acid]
[1]
  ALP activity of osteoblasts derived from mBMSC: increased
CB2R [2]; 1 μM, 6 h, HEK293-CB2 cells
  agonistic effect on CB2R (relative luminescence / fluorescence expression in HEK293-CB2): could increase the fluorescence expression
CB2R [2]; [6]
  reversal of the agonistic effect on CB2R by AM630: could be abated by AM630
[3]
  matrix mineralization of osteoblasts derived from mBMSC: increased
CB2R [4]
  IC50: 0.0731 µM
mBMSCs cells
  proliferation of mBMSCs cells: increased
[5]
  TRAP activity of osteoclasts derived from RAW264.7 cells induced with RANKL: inhibited TRAP activity

## CC(=O)OCC1=C[C@@H]2OC(=O)C3=CO[C@@H](O[C@@H]4O[C@H](CO)[C@@H](O)[C@H](O)[C@H]4O)[C@H]1[C@@H]32 [Asperuloside]
CB2R [2]
  agonistic effect on CB2R (relative luminescence / fluorescence expression in HEK293-CB2): could increase the fluorescence expression
  reversal of the agonistic effect on CB2R by AM630: could be abated by AM630
CB2R [4]
  IC50: 0.281 µM
mBMSCs cells
  proliferation of mBMSCs cells: had no effect on the proliferation

## COc1cc(/C=C/c2ccccc2)oc(=O)c1 [Desmethoxyyangonin]
[1]
  ALP activity of osteoblasts derived from mBMSC: increased
CB2R [2]; 1 μM, 6 h, HEK293-CB2 cells
  agonistic effect on CB2R (relative luminescence / fluorescence expression in HEK293-CB2): could increase the fluorescence expression
CB2R [2]; [6]
  reversal of the agonistic effect on CB2R by AM630: could be abated by AM630
[3]
  matrix mineralization of osteoblasts derived from mBMSC: increased
CB2R [4]
  IC50: 0.0299 µM
mBMSCs cells
  proliferation of mBMSCs cells: increased
[5]
  TRAP activity of osteoclasts derived from RAW264.7 cells induced with RANKL: inhibited TRAP activity
